PubChem BioAssay (NCI)
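Abbreviation: GI50, concentration required for 50% inhibition of growth. TGI is the concentration that stops growth completely.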

Columns and labels:
Test in all cases: NCI-60 cell line screen, 384-well format
SN12C renal = tested on: SN12C renal
NCI-H23 lung = tested on: NCI-H23 lung
MCF7 breast = tested on: MCF7 breast
M14 melanoma = tested on: M14 melanoma
UACC-257 melanoma = tested on: UACC-257 melanoma
OVCAR-4 ovarian = tested on: OVCAR-4 ovarian
LOX IMVI melanoma = tested on: LOX IMVI melanoma
HCC-2998 colon = tested on: HCC-2998 colon
SF-295 CNS = tested on: SF-295 CNS
UACC-62 melanoma = tested on: UACC-62 melanoma
SK-MEL-2 melanoma = tested on: SK-MEL-2 melanoma
NCI-H226 lung = tested on: NCI-H226 lung
SF-539 CNS = tested on: SF-539 CNS

Compound	GI50 (SN12C renal) [µM]	TGI (SN12C renal) [µM]	GI50 (NCI-H23 lung) [µM]	TGI (NCI-H23 lung) [µM]	GI50 (MCF7 breast) [µM]	TGI (MCF7 breast) [µM]	GI50 (M14 melanoma) [µM]	TGI (M14 melanoma) [µM]	GI50 (UACC-257 melanoma) [µM]	TGI (UACC-257 melanoma) [µM]	GI50 (OVCAR-4 ovarian) [µM]	TGI (OVCAR-4 ovarian) [µM]	GI50 (LOX IMVI melanoma) [µM]	TGI (LOX IMVI melanoma) [µM]	GI50 (HCC-2998 colon) [µM]	TGI (HCC-2998 colon) [µM]	GI50 (SF-295 CNS) [µM]	TGI (SF-295 CNS) [µM]	GI50 (UACC-62 melanoma) [µM]	TGI (UACC-62 melanoma) [µM]	other results
O=C(NC[C@H](O)CN1CCc2ccccc2C1)c1cc(NC2COC2)ncn1	> 100	> 100	> 100	> 100	> 41.5	> 100	> 100	> 100	> 100	> 100	21.8	> 100	> 100	> 100	> 100	> 100	> 100	> 100	> 100	> 100	GI50 (SK-MEL-2 melanoma): > 100 µM; TGI (SK-MEL-2 melanoma): > 100 µM; GI50 (NCI-H226 lung): > 100 µM; TGI (NCI-H226 lung): > 100 µM; GI50 (SF-539 CNS): > 100 µM; TGI (SF-539 CNS): > 100 µM
CN1CCN(c2ccc(Nc3cc(-c4cccc(-n5ccc6cc(C7CC7)cc(F)c6c5=O)c4CO)cn(C)c3=O)nc2)CC1	1.76	3.63	2.73	8.14	1.79	4.37	2.01	3.54	1.74	3.13	1.63	3.11	2.04	3.52	2.09	5.3	2.21	4.93	1.74	3.16	GI50 (SK-MEL-2 melanoma): 1.8 µM; TGI (SK-MEL-2 melanoma): 3.34 µM; GI50 (NCI-H226 lung): 1.99 µM; TGI (NCI-H226 lung): 4.03 µM; GI50 (SF-539 CNS): 1.71 µM; TGI (SF-539 CNS): 3.14 µM
